Measurements taken from patent US4720495A, “Benzo[ij]quinolizine-2-carboxylic acids useful for treating bacterial infection” (priority 1985, dated 1988).
Values after ≈ are worked out from the molar mass of the structure shown.

Key:
[1] = test system: Bacillus subtilis ATCC 6633; experiment: minimal inhibitory concentration, in vitro antibacterial activity; format: cell-based; settings: ATCC6633, 37° C., 20 hours
Experimental: (§1) The in vitro antibacterial activities of typical examples of the present compounds [I] were evaluated in terms of the minimal inhibitory concentration defined as the lowest concentration of the compound preventing the bacterial growth. The Gram-positive bacteria used as test microorganisms included Bacillus subtilis, Staphylococcus aureus and Streptococcus faecalis, and the Gram-negative bacteria used as test microorganisms included Escherichia coli, Enterobacter cloacae, Klebsiella pneumoniae, Proteus vulgaris, Pseudomonas aeruginosa, Serratia marcescens and Salmonella enteritidis. The minimal inhibitory concentration (cultured at 37° C. for 20 hours) was determined according to the standard method prescribed by the Japan Society of Chemotherapy (CHEMOTHERAPY, Vol. 29, No. 1, p. 76, 1981). The following compounds were used as typical examples of the present compounds [I]. At the end of the chemical name of each compound, its tentative designation is given in Parentheses.
(§2) For purposes of comparison, the in vitro antibacterial activities of ofloxacin, OPC-7241 and compound α were evaluated according to the same method as described above and the test results thus obtained are also shown in Table 1.

Enterobacter cloacae 963 = experiment: as above; format: cell-based; settings: 37° C., 20 hours
Experimental: as §1, §2

Escherichia coli CI-304 [2] = experiment: as above; format: cell-based; settings: CI304, 37° C., 20 hours
Experimental: as §1, §2

[3] = test system: Escherichia coli NIHJ JC-2; experiment: as above; format: cell-based; settings: NIHJJC2, 37° C., 20 hours
Experimental: as §1, §2

[4] = test system: Klebsiella pneumoniae PCI 602; experiment: as above; format: cell-based; settings: PCI602, 37° C., 20 hours
Experimental: as §1, §2

[5] = test system: Proteus vulgaris ATCC 13315; experiment: as above; format: cell-based; settings: ATCC13315, 37° C., 20 hours
Experimental: as §1, §2

[6] = test system: Pseudomonas aeruginosa NCTC 10490; experiment: as above; format: cell-based; settings: NCTC10490, 37° C., 20 hours
Experimental: as §1, §2

[7] = test system: Salmonella enteritidis G14; experiment: as above; format: cell-based; settings: Salmonella enterica, 37° C., 20 hours
Experimental: as §1, §2

[8] = test system: Serratia marcescens IAM 1184; experiment: as above; format: cell-based; settings: IAM1184, 37° C., 20 hours
Experimental: as §1, §2

[9] = test system: Staphylococcus aureus FDA 209P JC-1; experiment: as above; format: cell-based; settings: FDA209P, 37° C., 20 hours
Experimental: as §1, §2

[10] = test system: Streptococcus faecalis AHU 1085; experiment: as above; format: cell-based; settings: Enterococcus faecalis, AHU1085, 37° C., 20 hours
Experimental: as §1, §2

[11] = enteral absorbability, serum concentration after oral administration to mice; format: in vivo; settings: mouse, 50 mg/kg orally, fasted male ICR mice; for concentration at 0.5 h: 30 min.
Experimental: Using male ICR mice fasted overnight (weighing 20±1 g), the enteral absorbability of some typical examples of the present compounds [I] was tested. This test was carried out by administering 50 mg/kg of each test compound orally to mice and determining its serum concentration 30 minutes, 1 hour, 2 hours and 4 hours after administration. Five mice were used for each test point. At each test point, whole blood was collected from the mice by cardiac puncture and used to prepare serum samples. Concentrations of the test compounds in serum samples were determined by the paper disc method using Escherichia coli CI-304 as the test microorganism.
For purposes of comparison, the enteral absorbability of ofloxacin and OPC-7241 was tested in the same manner as described above and the results thus obtained are also shown in Table 2.

Escherichia coli CI-304 [12] = experiment: therapeutic effect on experimentally induced infection in mice; format: in vivo, Escherichia coli CI-304 in male ddY strain mice; settings: CI304, po, 168 h, orally, one hour after inoculation, survival after 7 days
Experimental: Using male ddY strain mice infected with Escherichia coli CI-304 (in groups of five; weighing 20±1 g), the therapeutic effect of some typical examples of the present compounds [I] was tested. The therapeutic effect was evaluated by administering each test compound orally to infected mice and calculating ED50 from the number of mice surviving after the lapse of 7 days. Infected mice were prepared by suspending cells of the aforesaid Escherichia coli strain in a 5% mucin solution and injecting this suspension into the peritoneal cavity of mice. The dose of the bacterial cells was ten times the minimal lethal dose which had previously been determined by a preliminary test. One hour after inoculation of the bacterial cells, each test compound was administered orally to the mice.
For purposes of comparison, ofloxacin and OPC-7241 were tested in the same manner as described above and the results thus obtained are also shown in Table 3.

[13] = test system: Gram-negative bacteria (such as Pseudomonas aeruginosa, Serratia marcescens and the like); experiment: confirmatory experiment on the antibacterial activity of Compound α; format: cell-based
Source text: (§3) On the other hand, Compound α has only been reported to be useful as an intermediate material for the preparation of 9-fluoro-6, 7-dihydro-7-hydroxy-5-methyl-1-oxo-1H, 5H-benzo[ij]quinolizine-2-carboxylic acid (Japanese Patent Laid-Open No. 127,099/'76), and no detailed report on its antibacterial activity has been published.

Gram-positive bacteria = experiment: as above; format: cell-based
Source text: as §3

[14] = 1 mg/mouse (equivalent to 50 mg/kg) orally, cited from earlier work
[15] = 50 mg/kg orally, fasted mice, after 30 minutes; cited from earlier work
[16] = test system: Gram-negative and Gram-positive bacteria; settings: in vitro tests with Gram-negative and Gram-positive bacteria; cited from earlier work

Row | SMILES | MIC [1] | MIC (Enterobacter cloacae 963) | MIC (Escherichia coli CI-304 [2]) | MIC [3] | MIC [4] | MIC [5] | MIC [6] | MIC [7] | MIC [8] | MIC [9] | MIC [10] | concentration at 0.5 h [11] | concentration at 1 h [11] | concentration at 2 h [11] | concentration at 4 h [11] | ED50 (Escherichia coli CI-304 [12]) | other results
1 | CC1CC(=O)c2c(N3CCN(C)CC3)c(F)cc3c(=O)c(C(=O)O)cn1c23 (stereo not shown) [Compound 3, 9-Fluoro-5-methyl-8-(4-methyl-1-piperazinyl)-6,7-dihydro-1,7-dioxo-1H, 5H-benzo[ij]quinolizine-2-carboxylic acid] | 0.1 µg/mL (≈ 0.268 µM) | 0.2 µg/mL (≈ 0.536 µM) | 0.1 µg/mL (≈ 0.268 µM) | 0.2 µg/mL (≈ 0.536 µM) | 0.1 µg/mL (≈ 0.268 µM) | 0.2 µg/mL (≈ 0.536 µM) | 0.78 µg/mL (≈ 2.09 µM) | 0.78 µg/mL (≈ 2.09 µM) | 1.56 µg/mL (≈ 4.18 µM) | 0.39 µg/mL (≈ 1.04 µM) | 0.78 µg/mL (≈ 2.09 µM) | 24200 ng/mL | 22400 ng/mL | 12600 ng/mL | 8400 ng/mL | 0.52 mg/kg | 
2 | CC1CN(c2c(F)cc3c(=O)c(C(=O)O)cn4c3c2C(=O)CC4C)CCN1 (stereo not shown) [Compound 16, 9-fluoro-5-methyl-8-(3-methyl-1-piperazinyl)-6,7-dihydro-1,7-dioxo-1H, 5H-benzo[ij]quinolizine-2-carboxylic acid] | 0.2 µg/mL (≈ 0.536 µM) | 0.2 µg/mL (≈ 0.536 µM) | 0.1 µg/mL (≈ 0.268 µM) | 0.2 µg/mL (≈ 0.536 µM) | 0.1 µg/mL (≈ 0.268 µM) | 0.2 µg/mL (≈ 0.536 µM) | 0.78 µg/mL (≈ 2.09 µM) | 0.78 µg/mL (≈ 2.09 µM) | 1.56 µg/mL (≈ 4.18 µM) | 0.2 µg/mL (≈ 0.536 µM) | 0.78 µg/mL (≈ 2.09 µM) | 16400 ng/mL | 13600 ng/mL | 8100 ng/mL | 4800 ng/mL | 0.71 mg/kg | 
3 | CC1CN(c2c(F)cc3c(=O)c(C(=O)O)cn4c3c2C=CC4C)CCN1 (stereo not shown) [Compound 29, 9-Fluoro-5-methyl-8-(3-methyl-1-piperazinyl) -1-oxo-1H, 5H-benzo[ij]quinolizine-2-carboxylic acid] | 0.2 µg/mL (≈ 0.56 µM) | 0.2 µg/mL (≈ 0.56 µM) | 0.1 µg/mL (≈ 0.28 µM) | 0.1 µg/mL (≈ 0.28 µM) | 0.1 µg/mL (≈ 0.28 µM) | 0.1 µg/mL (≈ 0.28 µM) | 1.56 µg/mL (≈ 4.37 µM) | 0.78 µg/mL (≈ 2.18 µM) | 0.78 µg/mL (≈ 2.18 µM) | 0.2 µg/mL (≈ 0.56 µM) | 0.78 µg/mL (≈ 2.18 µM) | 15600 ng/mL | 14400 ng/mL | 9800 ng/mL | 4200 ng/mL | 0.69 mg/kg | 
4 | CC1CC(=O)c2c(N3CCN(C)CC3)c(F)cc3c(=O)c(C(=O)O)cn1c23.Cl.O (stereo not shown) [Compound 35, 9-Fluoro-5-methyl-8-(4-methyl-1-piperazinyl) -6,7-dihydro-1,7-dioxo-1H, 5H-benzo[ij]quinolizine-2-carboxylic acid hydrochloride monohydrate] | 0.1 µg/mL | 0.2 µg/mL | 0.1 µg/mL | 0.2 µg/mL | 0.1 µg/mL | 0.2 µg/mL | 0.78 µg/mL | 0.78 µg/mL | 1.56 µg/mL | 0.39 µg/mL | 0.78 µg/mL | 24500 ng/mL | 22000 ng/mL | 11800 ng/mL | 8500 ng/mL |  | 
5 | CC1CN(c2c(F)cc3c(=O)c(C(=O)O)cn4c3c2C(=O)CC4C)CCN1C.Cl.O (stereo not shown) [Compound 38, 9-fluoro-5-methyl-8-(3,4-dimethyl-1-piperazinyl)-6,7-dihydro-1,7-dioxo-1H,5H-benzo[ij]quinolizine-2-carboxylic acid hydrochloride monohydrate] | 0.1 µg/mL | 0.2 µg/mL | 0.1 µg/mL | 0.2 µg/mL | 0.1 µg/mL | 0.1 µg/mL | 1.56 µg/mL | 0.78 µg/mL | 1.56 µg/mL | 0.78 µg/mL | 0.78 µg/mL | 26700 ng/mL | 24100 ng/mL | 13500 ng/mL | 9000 ng/mL |  | 
6 | CC1CC(=O)c2cc(F)cc3c(=O)c(C(=O)O)cn1c23 (stereo not drawn) [Compound α, 9-fluoro-6,7-dihydro-1,7-dioxo-5-methyl-1H, 5H-benzo[ij]quinolizine-2-carboxylic acid, reference compound] | 12.5 µg/mL (≈ 45.4 µM) | 12.5 µg/mL (≈ 45.4 µM) | 12.5 µg/mL (≈ 45.4 µM) | 25 µg/mL (≈ 90.8 µM) | 12.5 µg/mL (≈ 45.4 µM) | 25 µg/mL (≈ 90.8 µM) | > 100 µg/mL | 50 µg/mL (≈ 182 µM) | > 100 µg/mL | > 100 µg/mL | > 100 µg/mL |  |  |  |  |  | efficacy against Gram-negative bacteria [13]: utterly ineffective; efficacy against Gram-positive bacteria (Gram-positive bacteria): low
7 | CC1CCc2c(N3CCN(C)CC3)c(F)cc3c(=O)c(C(=O)O)cn1c23 (stereo not shown) [OPC-7241, 9-fluoro-6,7-dihydro-5-methyl-8-(4-methyl-1-piperazinyl)-1-oxo-1H, 5H-benzo[ij]quinolizine-2-carboxylic acid, reference compound] | 0.1 µg/mL (≈ 0.278 µM) | 0.78 µg/mL (≈ 2.17 µM) | 0.2 µg/mL (≈ 0.556 µM) | 0.39 µg/mL (≈ 1.09 µM) | 0.1 µg/mL (≈ 0.278 µM) | 0.1 µg/mL (≈ 0.278 µM) | 3.13 µg/mL (≈ 8.71 µM) | 0.78 µg/mL (≈ 2.17 µM) | 1.56 µg/mL (≈ 4.34 µM) | 0.39 µg/mL (≈ 1.09 µM) | 0.78 µg/mL (≈ 2.17 µM) | 9300 ng/mL | 7800 ng/mL | 4100 ng/mL | 2200 ng/mL | 1.7 mg/kg | 
8 | CC1COc2c(N3CCN(C)CC3)c(F)cc3c(=O)c(C(=O)O)cn1c23 (stereo not shown) [Ofloxacin, 9-fluoro-3-methyl-10-(4-methyl-1-piperazinyl)-7-oxo-2,3-dihydro-7H-pyrido[1,2,3-de][1,4]benzoxazine-6-carboxylic acid, reference compound] | 0.1 µg/mL (≈ 0.277 µM) | 0.2 µg/mL (≈ 0.553 µM) | 0.1 µg/mL (≈ 0.277 µM) | 0.2 µg/mL (≈ 0.553 µM) | 0.1 µg/mL (≈ 0.277 µM) | 0.1 µg/mL (≈ 0.277 µM) | 0.78 µg/mL (≈ 2.16 µM) | 0.39 µg/mL (≈ 1.08 µM) | 0.78 µg/mL (≈ 2.16 µM) | 0.2 µg/mL (≈ 0.553 µM) | 0.78 µg/mL (≈ 2.16 µM) | 9000 ng/mL | 6200 ng/mL | 2600 ng/mL | 1200 ng/mL | 0.9 mg/kg | residual concentration in the serum ([14]; 2 hours after administration): 1.5 µg/mL; serum concentration ([14]; fasted mice, after 30 minutes): 10 µg/mL
9 | CCn1cc(C(=O)O)c(=O)c2cc(F)c(N3CCNCC3)cc21 [norfloxacin, 1-ethyl-6-fluoro-1,4-dihydro-7-(1-piperazinyl)-4-oxoquinoline-3-carboxylic acid] |  |  |  |  |  |  |  |  |  |  |  |  |  |  |  |  | degree of absorption into the serum, average peak value [15]: 1 ± 0.6 µg/mL; antibacterial activity [16]: excellent antibacterial activity
